The numbers were not newly measured in US20070003628A1, “Nanoparticulate clopidogrel formulations” (Elan Pharma International Limited, priority 2005, published 2007), which cites them from elsewhere.

Experiment in data set [1]: not given
This is another data set of the same source.

Where a name gives a salt, the structure may show the parent alone. Read-outs that look alike come from different tables or passages of the source.

`COC(=O)[C@H](c1ccccc1Cl)N1CCc2sccc2C1` [clopidogrel]: where the note is “water, pH not stated”, the solubility in water entry is “practically insoluble”.
In the case of `COC(=O)[C@H](c1ccccc1Cl)N1CCc2sccc2C1` [Clopidogrel bisulfate, methyl (+)-(S)-α-(2-chorophenyl)-6,7-dihydrothieno[3,2-c]pyridine-5(4H)-acetate sulfate (1:1)], the “solubility in ethyl ether” value (ethyl ether) was “practically insoluble”. In addition, the solubility in methanol result (methanol) is “dissolves freely”. Also, under “methylene chloride”, the “solubility in methylene chloride” value is “dissolves sparingly”. In addition, the solubility in water entry is given as “freely soluble” (pH 1.0) and “practically insoluble” (water at neutral pH). For the same molecule, the “rate of a combined end point of cardiovascular death, MI, or stroke, and of cardiovascular death, MI, stroke, or refractory ischemia” value in data set [1] (patients with acute coronary syndrome) is recorded as “decrease the rate”. For the same molecule, the “rate of a combined end point of new ischemic stroke, new MI, and other vascular death” value in data set [1] (recent myocardial infarction, recent stroke or established arterial disease) is “reduce the rate”.
